Laboratory results: patent US10835466B2, “Wrinkle ameliorating agent” (POLA CHEMICAL INDUSTRIES, INC., priority 2016, dated 2020)
Structures can show the parent of a compound that is named as a salt.

Test system: wrinkles of the outer corners of the eyes
Assay: Test of wrinkle improvement effect (skin replica shadow image analysis after 8 weeks of application)
Type: in vivo, women
Conditions: for Wrinkle improvement Improvement rate (%): applied to outer corners of the eyes twice a day for 8 weeks; for Wrinkle improvement Evaluation: twice a day for 8 weeks, class of the improvement rate
Protocol: The cosmetics (Examples 1-7, Comparative Example, and Reference Examples) according to Table 1 were prepared respectively in a conventional manner. With regard to each of the prepared cosmetics, the wrinkle improvement effect was evaluated by the following method. In other words, 45 women (40 to 60 years old) who were concerned about wrinkles of the outer corners of the eyes were divided into 9 groups of 5 persons. To each group, any one of the cosmetics of Examples 1 to 7, Comparative Example, and Reference Examples was handed over, which was applied by them to the outer corners of the eyes twice a day in the morning and evening continuously for 8 weeks. Before and after the test, an impression of the skin surface profile was taken in a conventional manner to produce the respective replicas. As the base material for the replica, that for a white replica not transmitting light was used. […] The distribution of brightness in the shadow image was determined, and the brightness equal to or higher than the median value of the brightness was transformed to the maximum brightness, and the brightness below the median value was transformed to the brightness 0 so that binarization is performed according to the borderline of the median value of the brightness. Then the area rate of the shadow portion (portion with the brightness 0) was measured and the wrinkle improvement rate was calculated based on the following expression. Wrinkle improvement rate (%)=(Area rate of shadow portion before test−Area rate of shadow portion after test)/(Area rate of shadow portion before test)×100

[1] = cosmetic of Table 1 with 0.01% by mass compound (Examples 3 and 5), average of group of 5 women
[2] = cosmetic of Table 1 with 0.01% by mass compound (Examples 3 and 5)
[3] = cosmetic of Table 1 with 1% by mass compound, average of group of 5 women (40 to 60 years old)
[4] = cosmetic of Table 1 with 1% by mass compound

| SMILES | Wrinkle improvement Improvement rate (%) [1] [%] | Wrinkle improvement Evaluation [2] | Wrinkle improvement Improvement rate (%) [3] [%] | Wrinkle improvement Evaluation [4] |
| --- | --- | --- | --- | --- |
| NCC1CCC(C(=O)c2ccc(CCC(=O)O)cc2)CC1 (centres unmarked) [Compound 1, 3-[p-(4-aminomethylcyclohexylcarbonyl)phenyl]propionic acid] | 6.3 | A (5% or more and less than 10%) | 12 | AA (The improvement rate is 10% or more) |
| CCCCCCOC(=O)CCc1ccc(C(=O)C2CCC(CN)CC2)cc1 (centres unmarked) [Compound 2, hexyl 3-[p-(4-aminomethylcyclohexylcarbonyl)phenyl]propionate] |  |  | 8.2 | A (5% or more and less than 10%) |
| CCCCCC(=O)OCCCc1ccc(C(=O)C2CCC(CN)CC2)cc1 (centres unmarked) [Compound 4, 3-[p-(4-aminomethylcyclohexylcarbonyl)phenyl]propyl hexanoate] |  |  | 8.3 | A (5% or more and less than 10%) |
| NC[C@H]1CC[C@H](C(=O)O)CC1 [Tranexamic acid, reference compound] |  |  | 3.2 | B (less than 5%) |
| NCC1CCC(C(=O)c2ccc(CCC(=O)O)cc2)CC1 (centres unmarked) [Hydrochloride salt of Compound 1, 3-[p-(4-aminomethylcyclohexylcarbonyl)phenyl]propionic acid] |  |  | 12.2 | AA (The improvement rate is 10% or more) |
| CNC(=O)[C@H]1CC[C@H](CN)CC1.Cl [Tranexamic acid methylamide hydrochloride, reference compound] |  |  | 3.6 | B (less than 5%) |
| NCC1CCC(C(=O)c2ccc(CCCO)cc2)CC1 (centres unmarked) [Compound 3, 3-[p-(4-aminomethylcyclohexylcarbonyl)phenyl]propanol] | 5.6 | A (5% or more and less than 10%) | 9.3 | A (5% or more and less than 10%) |
| CCCCCC(=O)OCC(C)Cc1ccc(C(=O)C2CCC(CN)CC2)cc1 (centres unmarked) [Compound 5, 2-methyl-3-[p-(4-aminomethylcyclohexylcarbonyl)phenyl]propyl hexanoate] |  |  | 6.5 | A (5% or more and less than 10%) |
